From US20170258722A1, “ENCAPSULATING LIPOSOMES” (priority 2012, published 2017)

Experimental: Chloroform was removed by flash evaporation and the lipid mixture was dissolved in 1 ml of warm tert-butanol (also referred to as t-butanol). The tert-butanol solution of lipid was then frozen rapidly by immersing the tube in a mixture of isopropanol and dry ice. […] The excess sulfuric acid was then neutralized by adding an appropriate volume of 5 M sodium hydroxide alone or with phosphate buffer. […] After drug loading, the mixture was diluted with 0.9% w/v sodium chloride and sedimented in an ultracentrifuge for 1 hour at 30,000×g. The supernatant was carefully removed and the pellet was re-suspended in a small volume of 0.9% w/v NaCl.
First, DPPC/cholesterol films were lyophilized from t-butanol-treated lipid films. […] Liposomes were sedimented by centrifugation at 30,000 rpm for 0.5 hour to remove any unencapsulated drug.
To measure the encapsulated contents of the liposomes, the liposomes were washed in 0.9% NaCl solution and solubilized with 1:3:1 NaCl:methanol:chloroform.

CCN(CC)CCCC(C)Nc1ccnc2cc(Cl)ccc12 (centres unmarked) [chloroquine]
Drug Loading (% of Added) (Table 2, DPPC:Cholesterol 2:1 liposomes, 0.375M sulfuric acid, phosphate buffered loading): 100 % of Added
loaded using the acid loading methodology (sulfuric acid 0.375 M, 6 mg buprenorphine, 33 mg chloroquine added): 100%
